Test results taken from US6576239B1, “Angiogenic homing molecules and conjugates derived therefrom” (The Burnham Institute, priority 1996, dated 2003).
Read-outs that look alike come from different tables or passages of the source. No end group written: not given here.

Key:
breast tumor [1] = experiment: Competition of phage tumor homing by coinjection of free peptide; format: in vivo, mice; conditions: for effect of coinjected free peptide on homing of CDCRGDCFC phage: coinjection with CDCRGDCFC (RGD) phage; for effect of co-injected peptide on accumulation of NGR phage in breast carcinoma xenografts: phage expressing CNGRCVSGCAGRC, NGRAHA or CVLNGRMEC
Source text: Selective homing can be distinguished from nonspecific binding, however, by detecting differences in the abilities of different individual phage to home to a tumor. For example, selective homing can be identified by combining a putative tumor homing molecule such as a peptide expressed on a phage with a large excess of non-infective phage or with about a five-fold excess of phage expressing unselected peptides, injecting the mixture into a subject and collecting a sample of the tumor. […] In addition, nonspecific localization can be distinguished from selective homing by performing competition experiments using, for example, phage expressing a putative tumor homing peptide in combination with an excess amount of the “free” peptide (Example IV).
The various peptides, including RGD- and NGR-containing peptides, generally were bound to the tumor blood vessels. The minimal cyclic NGR peptide, CNGRC (SEQ ID NO: 8), was synthesized based on the CNGRCVSGCAGRC (SEQ ID NO: 3) sequence. When the CNGRC (SEQ ID NO: 8) peptide was co-injected with phage expressing either CNGRCVSGCAGRC (SEQ ID NO: 3), NGRAHA (SEQ ID NO: 6) or CVLNGRMEC (SEQ ID NO: 7), accumulation of the phage in the breast carcinoma xenografts was inhibited. […] (SEQ ID NO: 1) peptide, even when administered in amounts up to ten times higher than those that inhibited the homing of the NGR phage. In comparison, the […]

breast tumor [2] = experiment: Viability of tumor cells obtained from tumors of treated mice; format: in vivo; conditions: 30 μg equivalent iv, tumors removed after five days, cells counted 24 hours and 7 days after plating
Experimental: In addition, the viability of tumor cells obtained from tumors of mice treated with a tumor homing peptide/doxorubicin conjugate was compared to that of tumors from mice treated with free doxorubicin. In these experiments, breast tumor bearing mice were size matched with regard to the tumors, then treated intravenously with 30 μg equivalent of doxorubicin/CDCRGDCFC (SEQ ID NO: 1) or of free doxorubicin. Five days after treatment, the mice were euthanized and the tumors were removed. The tumor pairs were weighed and ground and the cell suspensions were plated (2 g tumor tissue per 150 mm plate).
Cell numbers were determined at 24 hours and 7 days after plating. Viability of tumor cells from the tumors of mice receiving the doxorubicin/CDCRGDCFC (SEQ ID NO: 1) conjugate was about 3 fold less than cells from tumors of mice treated with the free doxorubicin.

[3] = Acute toxicity in mice bearing extremely large tumors
[4] = system: MDA-MB-435 breast carcinoma; experiment: Tumor therapy of breast tumor bearing mice with doxorubicin/peptide conjugates; format: in vivo, BALB/c nu/nu mice; conditions: for gross examination of tumors (skin ulceration, tumor necrosis): 5 μg doxorubicin equivalent; for effect on tumor growth: relative to treatment with the vehicle, alone
Experimental: Female 2-month old BALB/c nu/nu mice (Harlan Sprague Dawley; San Diego Calif.) were used for these studies and were cared for according to the Burnham Institute animal facility guidelines. MDA-MB-435 breast carcinoma cells (Price et al., Cancer Res. 50:717-721 (1993)) were injected in the mammary fat pad of the nude mice and tumor growth was monitored (Pasqualini et al., supra, 1997). Tumors were allowed to grow to a size of about 1 cm^3 (about 5% of the mouse's body weight) before starting the treatment experiments, except for the toxicity experiments as discussed below.
Weekly doxorubicin/peptide conjugate or control treatments (5 μg/mouse/week of doxorubicin-equivalent) were administered intravenously. In some experiments, as indicated, a dose of 30 μg/mouse was administered every 3 weeks. Treatment with doxorubicin, alone, is referred to as “dox control” and treatment with doxorubicin conjugated to the non-tumor homing control peptide, […] As an additional control, in some experiments the tumor homing peptide was mixed with doxorubicin, without linking, and the mixture was administered to tumor bearing mice. Such treatment produced results that were not statistically different from those obtained with the above described dox controls.
Mice were anesthetized with a tribromoethanol-based anesthetic mixture (AVERTIN; Papaioannou and Fox, Lab. Anim. 43:189-192 (1993)) before each treatment. Anesthetization facilitated the tail vein injections (final volume, 200 μl) and allowed precise serial three dimensional tumor size measurements. Tumor volume calculations were based on the equation for the volume of an ovaloid: V= 4/3 (Πabc), where a, b, and c are ½ of the measured diameters in each of the three dimensions.

[5] = system: MDA-MB-435 human breast carcinoma cells; format: cell-based; conditions: for cell killing: agents not removed after 30 min, 24 hr
Experimental: MDA-MB-435 human breast carcinoma cells were plated at 1×10^5 cells/well in 96 well plates. Cells were incubated with increasing amounts of doxorubicin, the doxorubicin/[…] (SEQ ID NO: 1) conjugate, or the doxorubicin/GACVFSIAHECGA (SEQ ID NO: 19; control) conjugate (0.1 to 10 μg/well of doxorubicin-equivalent) for either 30 min or overnight. […] The number of surviving cells was determined at 24hours with crystal violet staining (see Koivunen et al., supra, 1994).

human αv-integrins = conditions: cited from earlier work
B16B15b mouse melanoma = experiment: In vivo panning against a melanoma tumor; parameters: species or system mice; conditions: 89 cloned phage recovered from B16B15b tumors after three rounds
Experimental: Tumors were transplanted into mice as described in Examples II and III, below. A mixture of phage libraries containing 1×10^9 to 1×10^14 TU was diluted in 200 μl DMEM and injected into the tail vein of anesthetized mice (AVERTIN (0.015 ml/g); see U.S. Pat. No. 5,622,699; Pasqualini and Ruoslahti, supra, 1996). After 1-4 minutes, mice were snap frozen in liquid nitrogen. To recover the phage, carcasses were partially thawed at room temperature for 1 hr, tumors and control orqans were collected and weighed, then were ground in 1 ml DMEM-PI (DMEM containing protease inhibitors (PI); phenylmethylsulfonyl fluoride (PMSF; 1 mM), aprotinin (20 μg/ml), leupeptin (1 μg/ml)).
Individual colonies containing phage recovered from a tumor were grown for 16 hr in 5 ml NZY/tet. The bacterial cultures obtained from the individual colonies were pooled and the phage were purified and re-injected into mice as described above for a second round of in vivo panning. In general, a third round of panning also was performed. Phage DNA was purified from individual bacterial colonies obtained from the final round of in vivo panning and the DNA sequences encoding the peptides expressed by selected phage were determined (see Koivunen et al., supra, 1994b).
Mice bearing a melanoma were produced by implantation of B16B15b mouse melanoma cells, which produce highly vascularized tumors. […]

[6] = system: Human 435 breast carcinoma tumor; experiment: In vivo targeting of phage expressing a peptide to a tumor (phage quantitated in organs); parameters: species or system mice; conditions: mouse melanoma, human Kaposi's sarcoma xenograft
Experimental: Human 435 breast carcinoma cells were inoculated into the mammary fat pad of nude mice. When the tumors attained a diameter of about 1 cm, phage expressing a specific RGD-containing peptide were administered to the tumor bearing mouse. Similar results
1×10^9 phage expressing the RGD-containing peptide, […] (SEQ ID NO: 1; see, Koivunen et al., supra, 1995) or control (insertless) phage were injected intravenously (iv) into the mice and allowed to circulate for 4 min. The mice then were snap frozen or perfused through the heart while under anesthesia, and various organs, including tumor, brain and kidney, were removed and the phage present in the organs was quantitated (see U.S. Pat. No. 5,622,699; Pasqualini and Ruoslahti, supra, 1996).
Approximately 2-3 times more phage expressing the […] (SEQ ID NO: 1) peptide were detected in the breast tumor as compared to brain and kidney, indicating the […] […] In a parallel study, unselected phage, which express various, diverse peptides, were injected into tumor-bearing mice and various organs were examined for the presence of phage. Far more phage were present in kidney and, to a lesser extent, brain, as compared to the tumor. Thus, the 80-fold more RGD-expressing phage than unselected phage concentrated in the tumor.

[7] = 200 μg/mouse, tumors about 25% of body weight
[8] = 5 μg/mouse/week doxorubicin-equivalent iv
[9] = 5 μg/mouse/week iv, t test, p<0.0001
[10] = 30 min exposure, 0.1 to 10 μg/well doxorubicin-equivalent, survivors counted at 24 hours

## CGSLVRC
Breast tumor [1]; mouse, in vivo
  effect of coadministered free peptide on homing of CGSLVRC phage: inhibited

## doxorubicin/CDCRGDCFC: doxorubicin coupled by EDC/NHS to the tumor homing peptide CDCRGDCFC (SEQ ID NO: 1) (cysteine pairing not given here; also: doxorubicin conjugate via EDC/NHS, site not given here)
Breast tumor [2]
  viability of tumor cells, fold less than after free doxorubicin: about 3 fold
[3]; [7]
  survival after treatment: survived for longer than one week
[4]
  gross examination of tumors (skin ulceration, tumor necrosis): marked skin ulceration and tumor necrosis
[4]; [8]
  survival: survived beyond the time when the dox control and conjugate control mice had died
  tumor size compared with control groups: significantly smaller tumors
[4]; [9]
  pulmonary metastasis vs dox control: a lower incidence of pulmonary metastasis and fewer metastatic lesions
  spread to regional lymph nodes vs dox control: less spread to regional lymph nodes
[4]; compared to the dox control group
  histopathological analysis of tumor vasculature: pronounced destruction of the vasculature in the tumors
[4]; dose escalation, 30 μg/mouse every three weeks for three cycles
  time remaining alive after dox control and conjugate control mice had died: more than 6 months
[5]; [10]
  cell death: cell death was present
[5]
  cell killing: the cells were killed by all of the treatments

## CDCRGDCFC
Breast tumor [1]
  effect of coinjected free peptide on homing of CDCRGDCFC phage: greatly reduced tumor homing of the RGD phage
  effect of co-injected peptide on accumulation of NGR phage in breast carcinoma xenografts: partially inhibited
Breast tumor [1]; higher than that of the CNGRC peptide
  amount needed to inhibit homing of NGR phage relative to CNGRC peptide: 5 to 10 fold
Human αv-integrins
  binding to human αv-integrins: binds to human αv-integrins

## GRGESP [reference compound]
Breast tumor [1]; 500 μg free peptide coinjected with phage expressing […]
  effect of coinjected free peptide on amount of RGD phage in the tumor: essentially had no effect

## WGTGLC
B16B15b mouse melanoma
  share of the clones sequenced: 25%

## CLSGSLSC
[6]
  tumor homing of phage/peptide: also homed to a breast tumor and to Kaposi's sarcoma
B16B15b mouse melanoma
  share of the clones sequenced: 52%

## doxorubicin/CNGRC (cysteine pairing not given here; also: doxorubicin conjugate)
[3]; mouse, in vivo
  toxicity relative to free doxorubicin: less toxic than free doxorubicin
[4]; [8]
  survival: marked effect on survival
  tumor size compared with control groups: significantly smaller
[4]
  effect on tumor growth: almost completely suppressed tumor growth

## doxorubicin/GACVFSIAHECGA: doxorubicin conjugated to the non-tumor homing control peptide GACVFSIAHECGA (SEQ ID NO: 19) (cysteine pairing not given here; also: doxorubicin conjugate) [reference compound]
[4]
  gross examination of tumors (skin ulceration, tumor necrosis): no such signs were observed
  effect on tumor growth: essentially no effect on tumor growth
[4]; [8]
  results as compared to dox control groups: not significantly different
[5]
  cell death: cell death was present only in the cultures treated with the doxorubicin/[…]
  cell killing: the cells were killed by all of the treatments

## COc1cccc2c1C(=O)c1c(O)c3c(c(O)c1C2=O)C[C@@](O)(C(=O)CO)C[C@@H]3O[C@H]1C[C@H](N)[C@H](O)[C@H](C)O1 [doxorubicin, reference compound]
[3]; [7]
  time to death after treatment: ≤ 48 h
[4]
  gross examination of tumors (skin ulceration, tumor necrosis): no such signs were observed
  effect on tumor growth: essentially no effect on tumor growth
[5]; [10]
  cell death: cell death was present only in the cultures treated with the doxorubicin/[…]
[5]
  cell killing: the cells were killed by all of the treatments

## CNGRCVSGCAGRC
[6]
  tumor homing of phage/peptide: also homed in vivo to a melanoma and to a Kaposi's sarcoma, but not to nontumor tissues

## ACDCRGDCFCG
Breast tumor [1]; 500 μg free peptide coinjected with phage expressing CDCRGDCFC
  effect of coinjected free peptide on amount of RGD phage in the tumor: reduced the amount of phage in the tumor by about tenfold

## CNGRC
Breast tumor [1]
  effect of coinjected free peptide on homing of CDCRGDCFC phage: did not inhibit
  effect of co-injected peptide on accumulation of NGR phage in breast carcinoma xenografts: inhibited
